Reference: PMC9105976, “A Novel β-Hairpin Peptide Z-d14CFR Enhances Multidrug-Resistant Bacterial Clearance in a Murine Model of Mastitis” (International Journal of Molecular Sciences, 2022)
In brackets after ≈: the same amount, converted by molar mass. Read-outs that look alike come from different tables or passages of the source. Positions of bridges follow the written chain, without caps; N, C: chain ends. Residues, ends and D or L forms follow the SMILES beside them.

Columns and labels:
MRSA ATCC33591 = assay: MIC/MBC, microdilution broth method; format: cell-based, S. aureus; conditions: for MBC: MRSA ATCC33591, kills 99.9% bacteria, NA = no activity at 1 mg/mL
Method: (§1) The MIC of peptides against bacteria was carried out by the microdilution broth method. The bacterial culture (OD 600 = 0.6) was diluted in 10 mM PBS to 1 × 10^6 CFU/mL. The bacterial suspension (100 μL) was added to 96-well plates, and the same volume of peptides, ampicillin or gentamicin (concentrations ranging from 0.001 to 2 mg/mL) were then added to the same 96-well plates, respectively.

[1] = Retention time of peptide in HPLC (hydrophobicity); format: physicochemical; conditions: used as measure of hydrophobicity (order Z-d14CR > Z-d14CF > Z-d13 > Z-d14CFR > Z-d14C); column and gradient not given
[2] = tested on: Streptococcus suis CVCC3307; assay: MIC/MBC, microdilution broth method; format: cell-based; conditions: for MBC: kills 99.9% bacteria, NA = no activity at 1 mg/mL
Method: as §1

[3] = tested on: Proteus vulgaris CVCC1971; assay: MIC/MBC, microdilution broth method; format: cell-based; conditions: for MBC: kills 99.9% bacteria, NA = no activity at 1 mg/mL
Method: as §1

[4] = tested on: Klebsiella pneumoniae CAU202084; assay: MIC/MBC, microdilution broth method; format: cell-based; conditions: for MBC: kills 99.9% bacteria, NA = no activity at 1 mg/mL
Method: as §1

[5] = tested on: Escherichia coli ATCC25922; assay: MIC/MBC, microdilution broth method; format: cell-based; conditions: for MBC: Escherichia coli ATCC25922, minimum concentration which kills 99.9% bacteria, NA = no activity at 1 mg/mL, read-out: MBC; for MIC: Escherichia coli, ATCC25922, 18 h, read-out: MIC
Method: as §1

[6] = tested on: Escherichia coli CAU 201919; assay: MIC/MBC, microdilution broth method; format: cell-based; conditions: for MBC: CAU201919, Escherichia coli CAU 201919 (MDR isolate), kills 99.9% bacteria, NA = no activity at 1 mg/mL, read-out: MBC; for MIC: Escherichia coli, CAU201919, 18 h, read-out: MIC
Method: as §1

[7] = tested on: Staphylococcus haemolyticus CAU202078; assay: MIC/MBC, microdilution broth method; format: cell-based; conditions: for MBC: Staphylococcus haemolyticus CAU202078 (MDR isolate), kills 99.9% bacteria, NA = no activity at 1 mg/mL, read-out: MBC; for MIC: Staphylococcus haemolyticus, CAU202078, 18 h, read-out: MIC
Method: as §1

[8] = tested on: Salmonella typhimurium ATCC14028; assay: MIC/MBC, microdilution broth method; format: cell-based; conditions: Salmonella enterica; for MIC: 18 h, read-out: MIC; for MBC: Salmonella typhimurium ATCC14028, kills 99.9% bacteria, NA = no activity at 1 mg/mL, read-out: MBC
Method: as §1

[9] = tested on: Escherichia coli CVCC1450; assay: MIC/MBC, microdilution broth method; format: cell-based; conditions: for MBC: Escherichia coli CVCC1450, minimum concentration which kills 99.9% bacteria, NA = no activity at 1 mg/mL, read-out: MBC; for MIC: Escherichia coli, CVCC1450, 18 h, read-out: MIC
Method: as §1

[10] = tested on: Bacillus cereus CAU 202020; assay: MIC/MBC, microdilution broth method; format: cell-based; conditions: for MIC: Bacillus cereus, CAU202020, 18 h, read-out: MIC; for MBC: CAU202020, Bacillus cereus CAU 202020 (MDR isolate), kills 99.9% bacteria, NA = no activity at 1 mg/mL, read-out: MBC
Method: as §1

[11] = tested on: Staphylococcus aureus ATCC29213; assay: MIC/MBC, microdilution broth method; format: cell-based; conditions: for MBC: Staphylococcus aureus ATCC29213, kills 99.9% bacteria, NA = no activity at 1 mg/mL, read-out: MBC; for MIC: Staphylococcus aureus, ATCC29213, 18 h, read-out: MIC
Method: as §1

[12] = tested on: Escherichia coli CAU 201920; assay: MIC/MBC, microdilution broth method; format: cell-based; conditions: for MBC: CAU201920, Escherichia coli CAU 201920 (MDR isolate), kills 99.9% bacteria, NA = no activity at 1 mg/mL, read-out: MBC; for MIC: Escherichia coli, CAU201920, 18 h, read-out: MIC
Method: as §1

E. coli CAU201919 = assay: Murine model of mastitis induced by MDR E. coli; format: in vivo, mice; conditions: Z-d14CFR 25 μg or gentamicin 10 μg via milk duct at 3 h and 15 h, 27 h post-infection
Description: In this study, the therapeutic effects of Z-d14CFR on MDR bacterial infection in vivo was verified by a murine mastitis model. E. coli CAU201919 was used to establish the mastitis model because it is highly pathogenic compared with other bacteria and is resistant to various antibiotics, such as ampicillin, amoxicillin and cefazolin. In brief, 45 Crl:CD1 female mice at 17–18 days of gestation were purchased from Beijing Vital River Laboratory Animal Technology Co., Ltd. (Beijing, China) and kept in the Laboratory Animal Center of China Agricultural University (Beijing, China). At 72 h post-partum, the mice were randomly divided into 5 groups (n = 9 per group) and the offspring were removed 3 h before of administration. The mice were anesthetized by Zoletil 50 (55 mg/kg body weight, WK001, Virbac, France) and held under the stereoscope in a supine position. Mice in the saline group and Z-d14CFR group were intraductal inoculated with 50 μL normal saline or 50 μL Z-d14CFR (25 μg each teat) alone to the milk duct. Mice in other groups were inoculated with 25 μL (1 × 10^5 CFU) E. coli CAU201919 suspension to the milk duct, and after 3 h of E. coli challenged, mice were treated with 25 μL saline, Z-d14CFR (25 μg) or gentamicin (10 μg), respectively, via milk duct injection. Then the mice were given the same treatment after 15 h of E. coli challenged. After 27 h of E. coli challenged, all mice were euthanized. The mammary gland tissues were collected to carry out bacterial count, histopathological examination and inflammatory factors examination.

S. aureus ATCC29213 = assay: Time-killing assay; format: cell-based; conditions: 2 MIC, CFU counts at 0-24 h; for time to kill bacteria in the logarithmic phase: 1 × 10^6 CFU/mL
Method: (§2) E. coli ATCC25922 and S. aureus ATCC29213 in the mid-logarithmic phase were diluted into 1 × 10^6 CFU/mL with 10 mM PBS, and incubated with 10 μL Z-d14CFR in a final concentration of 2 MIC. At 0, 4, 8, 12, 16, 20, and 24 h, the mixture was serial diluted and spread onto LB agar plates. After 16 h of cultivation, the CFU number of bacteria was counted to evaluate the ability of peptide to kill bacteria. The bacteria treated with 10 mM PBS as a negative control, and meanwhile incubated with 2 MIC gentamicin or polymyxin B as a positive control.

E. coli ATCC25922 = assay: Time-killing assay; format: cell-based; conditions: 2 MIC, CFU counts at 0-24 h; for time to kill bacteria in the logarithmic phase: 1 × 10^6 CFU/mL
Method: as §2

[13] = Staphylococcus aureus, 18 h, read-out: MIC
[14] = Staphylococcus aureus, read-out: MBC
[15] = Streptococcus suis CVCC3307, read-out: MBC
[16] = Streptococcus suis, CVCC3307, 18 h, read-out: MIC
[17] = Proteus vulgaris CVCC1971, read-out: MBC
[18] = Proteus vulgaris, CVCC1971, 18 h, read-out: MIC
[19] = Klebsiella pneumoniae CAU202084 (MDR isolate), read-out: MBC
[20] = Klebsiella pneumoniae, CAU202084, 18 h, read-out: MIC

Compound: CC(C)[C@@H]1NC(=O)[C@@H]2CSSC[C@H](NC(=O)[C@H](Cc3ccc(O)cc3)NC(=O)[C@@H](NC(=O)CNC(=O)[C@@H](N)CCCNC(=N)N)CSSC[C@@H](C(=O)N[C@@H](CCCNC(=N)N)C(N)=O)NC1=O)C(=O)N[C@@H](CC(N)=O)C(=O)N[C@@H](CO)C(=O)N[C@@H](CCCCN)C(=O)N[C@@H](CO)C(=O)N[C@@H](Cc1ccccc1)C(=O)N2 [Z-d14CF] (H-RGCYCNSKSFCVCR-NH2; disulfide 3-13, 5-11; N-terminus assumed)
- MIC (MRSA ATCC33591; MRSA (methicillin-resistant S. aureus) ATCC33591, 1 × 10^6 CFU/mL, 18 h at 37 °C, NA = no antimicrobial activity at 1 mg/mL): NA (NA) (No antimicrobial activity at 1 mg/mL)
- MBC (MRSA ATCC33591): NA (NA) (No antimicrobial activity at 1 mg/mL)
- RT, retention time of peptide in HPLC [1]: 9.538 min
- MIC ([2]; Streptococcus suis CVCC3307, 1 × 10^6 CFU/mL, 18 h at 37 °C, NA = no antimicrobial activity at 1 mg/mL): NA (NA) (No antimicrobial activity at 1 mg/mL)
- MBC ([2]; Streptococcus suis CVCC3307): NA (NA) (No antimicrobial activity at 1 mg/mL)
- MIC ([3]; Proteus vulgaris CVCC1971, 1 × 10^6 CFU/mL, 18 h at 37 °C, NA = no antimicrobial activity at 1 mg/mL): NA (NA) (No antimicrobial activity at 1 mg/mL)
- MBC ([3]; Proteus vulgaris CVCC1971): NA (NA) (No antimicrobial activity at 1 mg/mL)
- MIC ([4]; Klebsiella pneumoniae CAU202084 (MDR isolate), 1 × 10^6 CFU/mL, 18 h at 37 °C, NA = no antimicrobial activity at 1 mg/mL): NA (NA) (No antimicrobial activity at 1 mg/mL)
- MBC ([4]; Klebsiella pneumoniae CAU202084 (MDR isolate)): NA (NA) (No antimicrobial activity at 1 mg/mL)

Compound: CC1(C)S[C@@H]2[C@H](NC(=O)[C@H](N)c3ccccc3)C(=O)N2[C@H]1C(=O)O [Ampicillin, reference compound]
- MIC (MRSA ATCC33591; [13]): > 1000 µg/mL
- MBC (MRSA ATCC33591; [14]): > 1000 µg/mL
- MBC [2, 15]: 2 µg/mL (≈ 5.72 µM)
- MIC [2, 16]: 1 µg/mL (≈ 2.86 µM)
- MBC [5]: 16 µg/mL (≈ 45.8 µM)
- MIC [5]: 4 µg/mL (≈ 11.4 µM)
- MBC [6]: > 1000 µg/mL
- MIC [6]: > 1000 µg/mL
- MBC [7]: > 1000 µg/mL
- MIC [7]: > 1000 µg/mL
- MBC [3, 17]: > 1000 µg/mL
- MIC [3, 18]: > 1000 µg/mL
- MIC [8]: 4 µg/mL (≈ 11.4 µM)
- MBC [8]: 8 µg/mL (≈ 22.9 µM)
- MBC [9]: 32 µg/mL (≈ 91.6 µM)
- MIC [9]: 8 µg/mL (≈ 22.9 µM)
- MBC [4, 19]: > 1000 µg/mL
- MIC [4, 20]: > 1000 µg/mL
- MIC [10]: > 1000 µg/mL
- MBC [10]: > 1000 µg/mL
- MBC [11]: 4 µg/mL (≈ 11.4 µM)
- MIC [11]: 2 µg/mL (≈ 5.72 µM)
- MBC [12]: > 1000 µg/mL
- MIC [12]: > 1000 µg/mL

Compound: CNC(C)C1CCC(N)C(OC2C(N)CC(N)C(OC3OCC(C)(O)C(NC)C3O)C2O)O1 (stereo not drawn) [Gentamicin, reference compound]
- MIC (MRSA ATCC33591; [13]): 4 µg/mL (≈ 8.38 µM)
- MBC (MRSA ATCC33591; [14]): 16 µg/mL (≈ 33.5 µM)
- bacterial burden in the mammary gland (E. coli CAU201919; Crl:CD1 mice, 1 × 10^5 CFU E. coli CAU201919 intraductal, infected only about 3.71 × 10^9, p < 0.001): 3.13 × 10^8 CFU/g tissue
- histopathologic damage of the mammary gland (acinar wall thickening, neutrophils infiltration) (E. coli CAU201919): obviously ameliorated
- increase in IL-1β mRNA expression in the mammary gland (E. coli CAU201919; p < 0.001): attenuated
- increase in TNF-α mRNA expression in the mammary gland (E. coli CAU201919; p < 0.001): attenuated
- MBC [2, 15]: 8 µg/mL (≈ 16.8 µM)
- MIC [2, 16]: 4 µg/mL (≈ 8.38 µM)
- MBC [5]: 4 µg/mL (≈ 8.38 µM)
- MIC [5]: 4 µg/mL (≈ 8.38 µM)
- MBC [6]: 40 µg/mL (≈ 83.8 µM)
- MIC [6]: 40 µg/mL (≈ 83.8 µM)
- MBC [7]: 4 µg/mL (≈ 8.38 µM)
- MIC [7]: 4 µg/mL (≈ 8.38 µM)
- MBC [3, 17]: 4 µg/mL (≈ 8.38 µM)
- MIC [3, 18]: 1 µg/mL (≈ 2.09 µM)
- MIC [8]: 2 µg/mL (≈ 4.19 µM)
- MBC [8]: 2 µg/mL (≈ 4.19 µM)
- MBC [9]: 4 µg/mL (≈ 8.38 µM)
- MIC [9]: 2 µg/mL (≈ 4.19 µM)
- MBC [4, 19]: 4 µg/mL (≈ 8.38 µM)
- MIC [4, 20]: 1 µg/mL (≈ 2.09 µM)
- MIC [10]: 4 µg/mL (≈ 8.38 µM)
- MBC [10]: 32 µg/mL (≈ 67 µM)
- MBC [11]: 4 µg/mL (≈ 8.38 µM)
- MIC [11]: 4 µg/mL (≈ 8.38 µM)
- MBC [12]: 80 µg/mL (≈ 168 µM)
- MIC [12]: 80 µg/mL (≈ 168 µM)
- time to kill bacteria in the logarithmic phase (S. aureus ATCC29213): ≤ 8 h
- time to kill bacteria in the plateau (S. aureus ATCC29213): ≤ 12 h
- time to kill bacteria in the logarithmic phase (E. coli ATCC25922): ≤ 8 h
- time to kill bacteria in the plateau (E. coli ATCC25922): ≤ 12 h

Compound: polymyxin B
- time to kill bacteria in the logarithmic phase (S. aureus ATCC29213): ≤ 4 h
- time to kill bacteria in the plateau (S. aureus ATCC29213): ≤ 12 h
- time to kill bacteria in the logarithmic phase (E. coli ATCC25922): ≤ 4 h
- time to kill bacteria in the plateau (E. coli ATCC25922): ≤ 12 h
